In patent US11390582B2, “Polymorphs of 1-(4-benzyloxy-benzyl)-3-methyl-thiourea” (Seoul National University R&DB Foundation, priority 2019, dated 2022):

How the values were obtained:
Format in all cases: physicochemical
[1] = Hygroscopicity test through dynamic vapor sorption (DVS); settings: for Hygroscopicity (25° C./80% RH): DVS; for Morphology Change: after DVS hygroscopicity test
Text: Experimental Example 3. Hygroscopicity Test Through Dynamic Vapor Sorption (DVS)
From a pharmaceutical point of view, it is desired to maintain the initial moisture and morphology without absorbing moisture even in a moisture environment.

[2] = Stability test of crystalline forms A and B (25° C./60% RH and 40° C./75% RH, 1 week); settings: for Increase of impurities under given conditions: 25° C./60% RH and 40° C./75% RH; for Increase of impurities under given conditions / Change of crystalline form: in words
Text: Experimental Example 4. Stability Test
(§1) From a pharmaceutical point of view, the stability of an active ingredient is very important. It is not preferable pharmaceutically that impurities are excessively produced or the crystalline form is changed under a storage condition.

[3] = Stability test under storage condition at room temperature (crystalline form A, up to 6 months); settings: for Crystalline form / Purity (%): room temperature storage
Text: Experimental Example 5. Stability Test Under Storage Condition
as §1

[4] = storage conditions at room temperature, in words

Hygroscopicity (25° C./80% RH) [1]	Morphology Change [1]	Increase of impurities under given conditions [2]	Final crystalline form ([2]; 25° C./60% RH, 1 week)	HPLC Purity (area %) ([2]; 25° C./60% RH, 1 week)	Final crystalline form ([2]; 40° C./75% RH, 1 week)	HPLC Purity (area %) ([2]; 40° C./75% RH, 1 week)	HPLC Purity (area %) ([2]; Initial)	Compound	further results
0.07%	No	impurities were not increased	form A	99.71 area %	form A	99.66 area %	99.55 area %	CNC(=S)NCc1ccc(OCc2ccccc2)cc1 [Crystalline form A, 1-(4-benzyloxy-benzyl)-3-methyl-thiourea]	Moisture content compared between forms ([1]; 80% moisture condition, in words): contains less moisture under 80% moisture condition than crystalline form B; Crystalline form ([3]; 1 month): form A; Purity (%) ([3]; 1 month): 100.0%; Crystalline form ([3]; 3 months): form A; Purity (%) ([3]; 3 months): 100.0%; Crystalline form ([3]; 6 months): form A; Purity (%) ([3]; 6 months): 100.0%; Crystalline form ([3]; Initial): form A; Purity (%) ([3]; Initial): 100.0%; Change of crystalline form [3, 4]: the crystalline form was not changed; Increase of impurities [3, 4]: impurities were not increased
0.20%	No	impurities were not increased	forms A + B	99.70 area %	form A	99.72 area %	99.49 area %	CNC(=S)NCc1ccc(OCc2ccccc2)cc1 [Crystalline form B, 1-(4-benzyloxy-benzyl)-3-methyl-thiourea]	Change of crystalline form ([2]; acceleration condition): all changed into crystalline form A; Change of crystalline form ([2]; storage condition at room temperature): being changed into crystalline form A
